The values below come from patent publication US12365925B2, “Method and system for treatment of microorganisms during propagation, conditioning, fermentation, and preservation using ethyl lauroyl arginate and selected additives” (KEMIN INDUSTRIES, INC., priority 2015, dated 2025).

Data set [1] concerns Culture Dry Yeast (CDY) corn-mash fermentations. Kind of data set: HPLC of corn-mash fermentations challenged with bacterial contamination and LAE treatments. Format: cell-based. Conditions: CDY + treatment + Bacteria; average. The source says:
In support of validating LAE, High Performance Liquid Chromatography (HPLC) was used in a first phase of testing to evaluate the effects of LAE applications at various concentrations in order to determine the minimal inhibitory concentrations (MIC) of the LAE antimicrobial on a panel of industry-relevant bacteria. Refer to Tables 1 and 2 below, as well as FIGS. 2A-2D. FIG. 2A provides a visual depiction of test data relating to ethanol output from corn-mash fermentations treated with varying concentrations of LAE, with the results being the averages of triplicate samples (within one standard deviation). FIG. 2B provides a visual depiction of test data relating to ethanol output from corn-mash fermentations challenged with bacterial contamination and treated with 35 ppm LAE or 5 ppm Lactocide V (Virginamycin) (at the same time as the introduction of the bacteria), with the results being the averages of triplicate samples (within one standard deviation). FIG. 2C provides a visual depiction of test data relating to ethanol output from corn-mash fermentations challenged with bacterial contamination and treated with 50 ppm LAE or 5 ppm Lactocide V (Virginamycin) (at the same time as the introduction of the bacteria), with the results being the averages of triplicate samples (within one standard deviation). FIG. 2D provides a visual depiction of test data relating to colony-forming units (CFUs) of commercial yeast preparation with bacterial-contamination growth under batch-propagation conditions (molasses) with the addition of 0 ppm, 25 ppm, or 50 ppm LAE. One of the primary goals with the first phase of the LAE studies was to determine whether the addition of LAE would adversely affect ethanol production, and it was determined that LAE not only was not harmful to ethanol-production processes, but that unwanted microbe growth was inhibited using LAE enough to allow foregoing the use of antibiotics. Part of this analysis was to determine whether the introduction of LAE into the ethanol-production process would adversely impact the stillage byproducts used in animal feed, and for that matter whether the further use of LAE as a preservative in such byproducts would be safe for consumption by agricultural livestock. […] The testing serving as a basis for this conclusion assumed a maximum residual concentration of the LAE of 173 ppm in the distiller's grains. The safety of distiller's grains with LAE concentrations above 173 ppm was not fully evaluated.

Another data set has as its system Weisella confusa. Conditions: fermentation mixture; cited from earlier work.
A further data set concerns fermentation. As to conditions: fermentation mixture; cited from earlier work.

In the case of Virginiamycin [Lactocide], in data set [1], the “Acetic Acid” value amounted to 0.14 % wt/vol, the DP3 is on record as 0.15 % wt/vol, the DP4 is given as 0.78 % wt/vol and the Ethanol turned out to be 13.36 % wt/vol. Moreover, in data set [1], the Glucose was determined as 0.12 % wt/vol, the Glycerol is reported as 1.59 % wt/vol, the “Lactic Acid” value is 0.27 % wt/vol and the Maltose was 0.48 % wt/vol. The “concentration required to inhibit growth” value with Weisella confusa is on record as “over 25 mg/L”. In addition, the “concentration that will suppress fermentation” value with fermentation is “over 6 mg/L”.
